Assay results taken from patent US9884851B2, “Heterocycle-bisamide inhibitors of scavenger receptor BI” (THE BROAD INSTITUTE, INC., priority 2012, dated 2018).
“Also recorded” adds a separate entry of the source.

Legend:
[1] = molecular target: T1, murine SR-BI with the C384S mutation (Mus musculus, UniProt Q61009, C384S); experiment: Mutant SR-BI cholesterol efflux assay; assay type: cell-based; details: Cys384 converted to serine
T1 construct: expressed in transfected cells; host or cells: CHO cell line lacking LDL receptors, overexpressing C384S SR-BI
T1 sequence (Q61009 1-509 C384S): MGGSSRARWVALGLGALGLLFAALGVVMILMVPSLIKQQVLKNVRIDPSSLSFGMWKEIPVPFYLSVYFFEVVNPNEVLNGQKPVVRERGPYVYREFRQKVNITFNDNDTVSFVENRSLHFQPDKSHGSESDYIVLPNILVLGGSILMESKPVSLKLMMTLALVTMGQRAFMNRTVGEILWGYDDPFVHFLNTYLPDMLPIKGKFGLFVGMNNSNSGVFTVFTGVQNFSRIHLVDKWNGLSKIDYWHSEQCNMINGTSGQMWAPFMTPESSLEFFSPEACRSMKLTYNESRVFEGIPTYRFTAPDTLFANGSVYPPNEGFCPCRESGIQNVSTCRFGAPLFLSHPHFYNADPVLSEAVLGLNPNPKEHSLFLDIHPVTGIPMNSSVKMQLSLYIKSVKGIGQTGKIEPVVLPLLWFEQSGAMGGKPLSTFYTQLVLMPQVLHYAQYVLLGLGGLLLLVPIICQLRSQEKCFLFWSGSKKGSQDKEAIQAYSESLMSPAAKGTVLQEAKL
Experimental: Mutant SR-BI Cholesterol Efflux Assay (SA 10: AID Nos. 588843, 602138)
BLT-1 is known to interact at cysteine 384 of SR-BI (16). […] This assay is used to determine if the compounds work in a similar fashion to BLT-1 and require Cys384 to alter the efflux of FC to HDL.
On Day 0, 50,000 cells expressing murine SR-BI with the C384S mutation per well were plated in 24-well plates. On the following day, the media was removed and [^3H]cholesterol in lipoprotein-deficient media was added. On Day 1, the medium was replaced with Ham's F12 medium supplemented with 10% bovine lipoprotein deficient serum, 1 μCi/ml [1,2-^3H]cholesterol (40-60 Ci/mmol). On Day 3, the cells were washed to remove serum and incubated in Ham's F12 plus 1% fatty acid-free BSA. On Day 4, the cells were washed and pretreated with compounds for 1 hour. Subsequently, the cells were incubated for an additional 2 hours with the same concentrations of small molecules and with unlabeled HDL (final HDL concentration of 100 μg protein/ml). […] The amount of [^3H]cholesterol in the medium and within cells was determined using liquid scintillation counting. Total cellular [^3H]cholesterol was calculated as the sum of the radioactivity in the efflux medium plus the radioactivity in the cells and was used to calculate the [^3H]cholesterol efflux (percent of total [^3H]cholesterol released into the medium).

C384S SR-BI = molecular target: T2, C384S SR-BI (Mus musculus, UniProt Q61009, C384S); experiment: Radioactive HDL uptake assay (mutant SR-BI); assay type: cell-based, murine; details: Cys384 converted to serine
T2 construct: expressed in transfected cells; host or cells: CHO cell line lacking LDL receptors, overexpressing C384S SR-BI
T2 sequence (Q61009 1-509 C384S): T1 sequence (Q61009 1-509 C384S)
Text: Radioactive HDL Uptake Assay (mutant SR-BI) (SA 9: AID No. 588837)
BLT-1 is known to interact at cysteine 384 of SR-BI (16). […] This assay is used to determine if the compounds work in a similar fashion to BLT-1 and require Cys384 to alter the binding of HDL particles and uptake of the lipid to the mutant SR-BI scavenger receptor, using an alternative means of labeling HDL particles and avoiding any type of fluorescence measurement. To measure this lipid uptake event, HDL particles are labeled with [^3H]cholesteryl ester and added to C384S SR-BI cells. Cells take up HDL lipid via the mutant SR-BI in 2 to 3 hours. After significant uptake of the HDL lipid, the radiolabel can be detected by liquid scintillation counting. The level of radioactivity correlates with the amount of HDL lipid uptake. The uptake of lipid from HDL particles can be inhibited by the compound BLT-1 or when co-treated with an excess of unlabeled HDL. The mSR-BI cells utilized in the assay are a CHO cell line lacking expression of the LDL receptors and overexpressing the mutant scavenger receptor, C384S SR-BI.

ldlA[mSR-BI] cells = experiment: Cell cytotoxicity assay (CellTiter-Glo); details: ldlA[mSR-BI] cells
Experimental: It is possible that a compound will cause cells to decrease HDL-mediated DiI uptake due to nonspecific consequences of cellular toxicity, representing a second class of false positive hits. The cells were treated with compounds for 3 hours or 24 hours, and then cell viability was measured using the CellTiter-Glo Assay (Promega), a luciferase-based reagent that measures cellular ATP levels. The compounds were tested at different concentrations to determine IC50 values. […] Data were normalized against DMSO and the positive control (1 μM BLT-1) in Genedata Assay Analyzer.
All available dry powder samples of the remaining, non-quenching compounds were procured from commercial sources and purities were determined. The compounds obtained were then retested in the primary assay and in cytotoxicity assays. We wanted to rule out any compounds that were cytotoxic, especially in the 3-hour time span of the primary DiI-HDL uptake assay. Therefore, compounds were tested in ldl[mSR-BI] cells for cytotoxicity at 3 hours and 24 hours using the CellTiter-Glo assay (Promega) that measures cellular ATP as a marker of cell viability. […] Compounds were screened for inhibition of endocytosis using labeled transferrin, which is known to bind the transferrin receptor, enter cells by clathrin-mediated endocytosis, and move to endosomes before being recycled to the cell surface.

hepatitis C virus (HCV) = experiment: In vitro testing with Huh-7.5 cells infected with HCV; assay type: cell-based; details: for inhibition of HCV replication (in words): Huh-7.5 cells infected with Jcl 378-1 TagRFP (MOI=0.1), 3 dpi
Experimental: A series of tests were conducted using the compound of Formula II (CID53393835/ML279), other known inhibitors of SR-BI and controls with cells infected with hepatitis C virus (HCV). The cells (Huh-7.5 cells infected with Jcl 378-1 TagRFP (MOI=0.1) 3 dpi) were treated with the following SR-BI compounds and controls:
Three different infection protocols were followed: (1) no wash—virus inoculum was removed 4hpi and fresh medium containing compounds added without washing cells; (2) 5× wash—virus inoculum was removed 4hpi, cells were washed 5× with PBS and fresh medium containing compounds added; and (3) no wash Opt—infection were performed in serum-free OptiMem; virus inoculum was removed 4hpi and fresh medium containing compounds added without washing cells. FIG. 90 provides a comparison of the three different infection set-ups. FIG. 91 provides a comparison of two independent experiments.

Compound: CCCCCCC1CCCC1=NNC(N)=S (stereo not drawn) [BLT-1, reference compound]
- efflux of cholesterol in C384S mutant background (in words) [1]: cannot reduce uptake of HDL or efflux of cholesterol
- uptake of HDL in C384S mutant background (in words) (C384S SR-BI): cannot reduce uptake of HDL or efflux of cholesterol
- cytotoxicity (in words) (ldlA[mSR-BI] cells): extremely toxic to cells
- inhibition of HCV replication (in words) (hepatitis C virus (HCV); listed as 8): able to inhibit HCV replication
- inhibition of HCV replication (in words) (hepatitis C virus (HCV); listed as SRB1-8): inhibited viral replication
- mean fluorescence intensity (MFI) of HCV positive cells (in words) (hepatitis C virus (HCV); dose dependence): increased mean fluorescence intensity (MFI) of HCV positive cells in a dose dependent manner

Compound: C[C@H](C(=O)NC1CCCC1)N(C(=O)Cn1nnc(-c2ccc3c(c2)OCO3)n1)C1CCCCC1 [ML279, (R)-2-(2-(5-(Benzo[d][1,3]dioxol-5-yl)-2H-tetrazol-2-yl)-N-cyclohexylacetamido)-N-cyclopentylpropanamide]
- efflux of cholesterol in C384S mutant background (in words) [1]: can reduce uptake and efflux in the mutant background
- uptake of HDL in C384S mutant background (in words) (C384S SR-BI): can reduce uptake and efflux in the mutant background
- cytotoxicity (in words) (ldlA[mSR-BI] cells): not cytotoxic; also recorded: no cytotoxicity at 24 hours
- inhibition of HCV replication (in words) (hepatitis C virus (HCV); listed as 5): able to inhibit HCV replication
- inhibition of HCV replication (in words) (hepatitis C virus (HCV); listed as SRB1-5): inhibited viral replication
- inhibition of virus assembly/egress (in words) (hepatitis C virus (HCV); fluorescence intensity of HCV positive cells normalized to DMSO): can also inhibit virus assembly/egress
